This note sets out measurements from ChEMBL document CHEMBL5465560, “Selectivity Literature for EUbOPEN Chemogenomic Library” (2024).

In assay [1] the target is T1, Mitogen-activated protein kinase kinase kinase 7 (Homo sapiens) (UniProt O43318).
T1 sequence (whole entry): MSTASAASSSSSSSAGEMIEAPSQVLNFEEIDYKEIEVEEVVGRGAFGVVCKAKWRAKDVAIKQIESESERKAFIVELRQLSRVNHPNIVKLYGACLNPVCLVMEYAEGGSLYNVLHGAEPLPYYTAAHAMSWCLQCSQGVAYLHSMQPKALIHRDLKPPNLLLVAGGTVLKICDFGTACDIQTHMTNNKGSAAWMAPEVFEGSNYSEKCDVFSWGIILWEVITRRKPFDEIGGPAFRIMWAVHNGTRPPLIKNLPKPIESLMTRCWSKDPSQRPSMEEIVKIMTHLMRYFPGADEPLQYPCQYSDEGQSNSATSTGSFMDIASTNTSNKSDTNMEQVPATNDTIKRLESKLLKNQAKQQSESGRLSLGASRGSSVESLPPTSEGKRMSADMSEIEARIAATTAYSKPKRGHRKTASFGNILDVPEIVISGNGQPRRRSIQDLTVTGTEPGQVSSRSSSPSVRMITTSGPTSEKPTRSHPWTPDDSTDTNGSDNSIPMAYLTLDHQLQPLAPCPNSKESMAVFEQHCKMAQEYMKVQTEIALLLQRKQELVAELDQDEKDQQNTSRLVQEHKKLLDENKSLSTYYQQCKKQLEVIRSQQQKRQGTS
The assay can be described thus: Selectivity interaction (LanthaScreen Eu Kinase Binding Assay) EUB0001632a MAP3K7. The following applies: at 10 µM. In general terms: TR-FRET usually uses a lanthanide donor and a delayed reading to cut background.

Assay [2] addresses Prostaglandin G/H synthase 1 (Homo sapiens) (UniProt P23219). The assay can be described thus: Selectivity interaction (Panel of non-epigenetic targets (kinases, GPCRs, ion channels, and transporters, Eurofins) ) EUB0000271b PTGS1. The following applies: at 1 µM.
Assay [3] addresses Death-associated protein kinase 1 (Homo sapiens, UniProt P53355). The following applies: at 10 µM.
Assay [4] has as its target Citron Rho-interacting kinase (Homo sapiens) (UniProt O14578). Briefly: Selectivity interaction (KinomeScan (DiscoverX)) EUB0000229b CIT. The following applies: at 10 µM.
For assay [5], the target named is Glycogen synthase kinase-3 alpha (Homo sapiens, UniProt P49840). Briefly: Selectivity interaction (KinomeScan (DiscoverX)) EUB0001079a GSK3A. The following applies: at 1 µM.
Chain of Glycogen synthase kinase-3 alpha (P49840 2-483 limits assumed): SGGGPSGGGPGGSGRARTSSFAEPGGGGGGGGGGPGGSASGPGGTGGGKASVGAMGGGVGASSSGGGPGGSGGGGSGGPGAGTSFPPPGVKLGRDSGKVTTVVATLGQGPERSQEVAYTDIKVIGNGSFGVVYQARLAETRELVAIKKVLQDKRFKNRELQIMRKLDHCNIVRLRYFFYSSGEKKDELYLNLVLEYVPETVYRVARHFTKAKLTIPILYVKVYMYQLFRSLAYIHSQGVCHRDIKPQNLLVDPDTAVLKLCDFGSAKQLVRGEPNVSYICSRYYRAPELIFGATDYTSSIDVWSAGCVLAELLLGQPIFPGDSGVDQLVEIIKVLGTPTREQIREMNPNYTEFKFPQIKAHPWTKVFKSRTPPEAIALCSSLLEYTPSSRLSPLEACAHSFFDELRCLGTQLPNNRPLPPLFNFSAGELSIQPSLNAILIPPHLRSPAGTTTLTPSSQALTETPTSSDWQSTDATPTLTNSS
The target of assay [6] is Ribosomal protein S6 kinase alpha-2 (Homo sapiens) (UniProt Q15349). The assay can be described thus: Selectivity interaction (KinomeScan (DiscoverX)) EUB0001079a RPS6KA2. The following applies: at 1 µM.
The target of assay [7] is T2, Ephrin type-B receptor 1 (Homo sapiens) (UniProt P54762).
T2 sequence (whole entry): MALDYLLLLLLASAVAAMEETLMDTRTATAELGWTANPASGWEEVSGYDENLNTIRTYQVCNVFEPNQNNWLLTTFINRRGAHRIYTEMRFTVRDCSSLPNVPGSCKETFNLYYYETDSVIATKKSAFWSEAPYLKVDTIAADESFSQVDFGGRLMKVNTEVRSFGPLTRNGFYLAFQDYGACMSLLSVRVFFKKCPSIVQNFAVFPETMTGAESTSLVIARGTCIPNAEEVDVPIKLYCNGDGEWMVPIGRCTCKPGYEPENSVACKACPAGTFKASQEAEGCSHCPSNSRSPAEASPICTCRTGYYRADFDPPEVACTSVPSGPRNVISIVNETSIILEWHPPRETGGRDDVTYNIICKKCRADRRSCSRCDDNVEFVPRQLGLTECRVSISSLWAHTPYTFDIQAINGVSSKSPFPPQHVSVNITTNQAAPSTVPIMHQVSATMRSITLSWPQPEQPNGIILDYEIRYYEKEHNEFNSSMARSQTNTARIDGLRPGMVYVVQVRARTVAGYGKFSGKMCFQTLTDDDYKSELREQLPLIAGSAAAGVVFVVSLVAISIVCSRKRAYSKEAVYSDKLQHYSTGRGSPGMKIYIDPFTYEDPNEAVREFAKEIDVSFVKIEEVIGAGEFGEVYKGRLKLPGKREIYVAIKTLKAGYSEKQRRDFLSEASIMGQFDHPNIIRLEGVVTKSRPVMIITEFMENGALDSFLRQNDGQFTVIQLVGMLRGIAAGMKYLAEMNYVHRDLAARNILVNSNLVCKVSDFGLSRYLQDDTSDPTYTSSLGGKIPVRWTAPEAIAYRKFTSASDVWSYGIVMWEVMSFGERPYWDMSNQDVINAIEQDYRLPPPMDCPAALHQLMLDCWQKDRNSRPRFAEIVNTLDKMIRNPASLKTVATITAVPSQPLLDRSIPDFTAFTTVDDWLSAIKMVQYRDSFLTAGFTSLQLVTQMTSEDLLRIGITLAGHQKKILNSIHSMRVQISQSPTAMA
The assay can be described thus: Selectivity interaction (KinomeScan (DiscoverX)) EUB0001079a EPHB1. The following applies: at 1 µM.

Assay [8] deals with Casein kinase I isoform gamma-3 (Homo sapiens) (UniProt Q9Y6M4). The assay can be described thus: Selectivity interaction (KinomeScan (DiscoverX)) EUB0001619a CSNK1G3. The following applies: at 1 µM.
Chain of Casein kinase I isoform gamma-3 (Homo sapiens) (Q9Y6M4 whole entry, looked up, canonical isoform): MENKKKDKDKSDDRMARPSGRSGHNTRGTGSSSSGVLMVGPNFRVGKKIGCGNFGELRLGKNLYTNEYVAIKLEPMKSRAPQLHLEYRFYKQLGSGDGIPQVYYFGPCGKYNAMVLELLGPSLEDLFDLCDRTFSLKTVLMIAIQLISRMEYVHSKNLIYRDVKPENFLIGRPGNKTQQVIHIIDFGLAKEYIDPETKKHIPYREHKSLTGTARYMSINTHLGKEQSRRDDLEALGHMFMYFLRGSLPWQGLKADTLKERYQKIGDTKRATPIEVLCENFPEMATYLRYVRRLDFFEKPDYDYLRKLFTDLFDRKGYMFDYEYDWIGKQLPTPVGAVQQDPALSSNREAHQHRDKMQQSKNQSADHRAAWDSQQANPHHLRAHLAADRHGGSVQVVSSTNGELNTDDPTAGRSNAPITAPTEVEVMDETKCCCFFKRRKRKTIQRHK
Assay [9] has as its target Cholecystokinin receptor type A (Homo sapiens) (UniProt P32238). Briefly: Selectivity interaction (Eurofins CEREP Diversity Profile (receptors and ion channels)) EUB0000279b CCKAR. The following applies: at 10 µM.
For assay [10], the target named is Cyclin-dependent kinase 8 (Homo sapiens, UniProt P49336). Briefly: Selectivity interaction (KinomeScan (DiscoverX)) EUB0000092b CDK8. The following applies: at 10 µM.
Chain of Cyclin-dependent kinase 8 (P49336 whole entry): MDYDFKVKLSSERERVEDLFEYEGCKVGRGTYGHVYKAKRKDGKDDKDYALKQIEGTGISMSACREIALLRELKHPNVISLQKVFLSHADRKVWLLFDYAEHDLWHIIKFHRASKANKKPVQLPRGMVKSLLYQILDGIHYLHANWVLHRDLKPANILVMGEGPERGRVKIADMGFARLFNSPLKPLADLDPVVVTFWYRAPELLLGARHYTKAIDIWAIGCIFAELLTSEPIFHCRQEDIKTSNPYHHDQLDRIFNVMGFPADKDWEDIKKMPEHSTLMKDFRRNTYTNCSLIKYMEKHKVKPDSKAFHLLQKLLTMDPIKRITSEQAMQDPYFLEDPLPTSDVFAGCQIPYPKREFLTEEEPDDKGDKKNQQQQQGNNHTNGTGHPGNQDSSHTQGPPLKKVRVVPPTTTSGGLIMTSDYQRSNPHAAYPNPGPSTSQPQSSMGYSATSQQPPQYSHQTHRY
For assay [11], the target named is T3, Tyrosine-protein kinase ZAP-70 (Homo sapiens) (UniProt P43403).
T3 sequence (whole entry): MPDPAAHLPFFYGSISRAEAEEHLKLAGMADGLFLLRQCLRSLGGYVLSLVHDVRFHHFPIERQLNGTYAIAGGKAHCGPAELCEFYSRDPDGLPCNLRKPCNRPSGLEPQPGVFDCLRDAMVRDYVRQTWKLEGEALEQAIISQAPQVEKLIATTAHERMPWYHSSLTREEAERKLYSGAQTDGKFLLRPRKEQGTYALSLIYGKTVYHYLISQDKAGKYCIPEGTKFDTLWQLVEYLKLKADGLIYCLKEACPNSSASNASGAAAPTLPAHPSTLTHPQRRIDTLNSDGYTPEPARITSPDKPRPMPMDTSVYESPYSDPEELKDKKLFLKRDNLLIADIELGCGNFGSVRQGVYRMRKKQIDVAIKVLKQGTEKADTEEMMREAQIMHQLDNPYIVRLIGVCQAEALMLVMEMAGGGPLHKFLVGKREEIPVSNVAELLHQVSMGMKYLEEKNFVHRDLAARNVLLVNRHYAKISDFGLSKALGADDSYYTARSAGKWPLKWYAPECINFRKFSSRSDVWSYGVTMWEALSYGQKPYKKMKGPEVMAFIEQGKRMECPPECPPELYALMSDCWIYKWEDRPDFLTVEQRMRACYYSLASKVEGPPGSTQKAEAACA
Briefly: Selectivity interaction (KinomeScan (DiscoverX)) EUB0000595a ZAP70. The following applies: at 10 µM.

Molecules are shown by their SMILES.

Chain of Prostaglandin G/H synthase 1 (Homo sapiens) (P23219 whole entry): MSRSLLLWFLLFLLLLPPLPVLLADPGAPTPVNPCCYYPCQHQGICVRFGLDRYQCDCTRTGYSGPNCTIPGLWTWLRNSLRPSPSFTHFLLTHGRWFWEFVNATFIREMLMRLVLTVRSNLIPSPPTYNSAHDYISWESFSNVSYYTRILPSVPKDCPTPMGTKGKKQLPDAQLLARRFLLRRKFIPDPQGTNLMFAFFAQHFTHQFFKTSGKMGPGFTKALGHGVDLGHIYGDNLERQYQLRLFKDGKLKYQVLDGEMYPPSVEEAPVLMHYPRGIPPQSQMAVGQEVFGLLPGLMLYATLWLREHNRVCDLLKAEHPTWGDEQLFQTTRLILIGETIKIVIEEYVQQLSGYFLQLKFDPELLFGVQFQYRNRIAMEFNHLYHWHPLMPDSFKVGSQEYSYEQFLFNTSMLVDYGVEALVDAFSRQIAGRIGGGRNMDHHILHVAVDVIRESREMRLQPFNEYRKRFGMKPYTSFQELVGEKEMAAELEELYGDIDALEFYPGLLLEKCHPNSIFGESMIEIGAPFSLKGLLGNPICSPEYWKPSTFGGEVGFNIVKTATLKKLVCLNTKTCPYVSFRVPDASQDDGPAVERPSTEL
Chain of Cholecystokinin receptor type A (Homo sapiens) (P32238 whole entry): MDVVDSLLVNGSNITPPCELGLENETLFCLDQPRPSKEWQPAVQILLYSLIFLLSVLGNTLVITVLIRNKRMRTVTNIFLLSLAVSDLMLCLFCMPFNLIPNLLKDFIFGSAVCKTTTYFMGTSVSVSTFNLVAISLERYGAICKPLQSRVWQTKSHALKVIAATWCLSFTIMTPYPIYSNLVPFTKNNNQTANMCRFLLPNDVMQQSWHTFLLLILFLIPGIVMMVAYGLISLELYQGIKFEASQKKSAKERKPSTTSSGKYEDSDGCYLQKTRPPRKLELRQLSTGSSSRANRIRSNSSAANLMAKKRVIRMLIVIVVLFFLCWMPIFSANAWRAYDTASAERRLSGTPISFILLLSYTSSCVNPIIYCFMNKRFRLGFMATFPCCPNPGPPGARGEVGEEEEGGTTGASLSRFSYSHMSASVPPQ
Chain of Citron Rho-interacting kinase (Homo sapiens) (O14578 whole entry): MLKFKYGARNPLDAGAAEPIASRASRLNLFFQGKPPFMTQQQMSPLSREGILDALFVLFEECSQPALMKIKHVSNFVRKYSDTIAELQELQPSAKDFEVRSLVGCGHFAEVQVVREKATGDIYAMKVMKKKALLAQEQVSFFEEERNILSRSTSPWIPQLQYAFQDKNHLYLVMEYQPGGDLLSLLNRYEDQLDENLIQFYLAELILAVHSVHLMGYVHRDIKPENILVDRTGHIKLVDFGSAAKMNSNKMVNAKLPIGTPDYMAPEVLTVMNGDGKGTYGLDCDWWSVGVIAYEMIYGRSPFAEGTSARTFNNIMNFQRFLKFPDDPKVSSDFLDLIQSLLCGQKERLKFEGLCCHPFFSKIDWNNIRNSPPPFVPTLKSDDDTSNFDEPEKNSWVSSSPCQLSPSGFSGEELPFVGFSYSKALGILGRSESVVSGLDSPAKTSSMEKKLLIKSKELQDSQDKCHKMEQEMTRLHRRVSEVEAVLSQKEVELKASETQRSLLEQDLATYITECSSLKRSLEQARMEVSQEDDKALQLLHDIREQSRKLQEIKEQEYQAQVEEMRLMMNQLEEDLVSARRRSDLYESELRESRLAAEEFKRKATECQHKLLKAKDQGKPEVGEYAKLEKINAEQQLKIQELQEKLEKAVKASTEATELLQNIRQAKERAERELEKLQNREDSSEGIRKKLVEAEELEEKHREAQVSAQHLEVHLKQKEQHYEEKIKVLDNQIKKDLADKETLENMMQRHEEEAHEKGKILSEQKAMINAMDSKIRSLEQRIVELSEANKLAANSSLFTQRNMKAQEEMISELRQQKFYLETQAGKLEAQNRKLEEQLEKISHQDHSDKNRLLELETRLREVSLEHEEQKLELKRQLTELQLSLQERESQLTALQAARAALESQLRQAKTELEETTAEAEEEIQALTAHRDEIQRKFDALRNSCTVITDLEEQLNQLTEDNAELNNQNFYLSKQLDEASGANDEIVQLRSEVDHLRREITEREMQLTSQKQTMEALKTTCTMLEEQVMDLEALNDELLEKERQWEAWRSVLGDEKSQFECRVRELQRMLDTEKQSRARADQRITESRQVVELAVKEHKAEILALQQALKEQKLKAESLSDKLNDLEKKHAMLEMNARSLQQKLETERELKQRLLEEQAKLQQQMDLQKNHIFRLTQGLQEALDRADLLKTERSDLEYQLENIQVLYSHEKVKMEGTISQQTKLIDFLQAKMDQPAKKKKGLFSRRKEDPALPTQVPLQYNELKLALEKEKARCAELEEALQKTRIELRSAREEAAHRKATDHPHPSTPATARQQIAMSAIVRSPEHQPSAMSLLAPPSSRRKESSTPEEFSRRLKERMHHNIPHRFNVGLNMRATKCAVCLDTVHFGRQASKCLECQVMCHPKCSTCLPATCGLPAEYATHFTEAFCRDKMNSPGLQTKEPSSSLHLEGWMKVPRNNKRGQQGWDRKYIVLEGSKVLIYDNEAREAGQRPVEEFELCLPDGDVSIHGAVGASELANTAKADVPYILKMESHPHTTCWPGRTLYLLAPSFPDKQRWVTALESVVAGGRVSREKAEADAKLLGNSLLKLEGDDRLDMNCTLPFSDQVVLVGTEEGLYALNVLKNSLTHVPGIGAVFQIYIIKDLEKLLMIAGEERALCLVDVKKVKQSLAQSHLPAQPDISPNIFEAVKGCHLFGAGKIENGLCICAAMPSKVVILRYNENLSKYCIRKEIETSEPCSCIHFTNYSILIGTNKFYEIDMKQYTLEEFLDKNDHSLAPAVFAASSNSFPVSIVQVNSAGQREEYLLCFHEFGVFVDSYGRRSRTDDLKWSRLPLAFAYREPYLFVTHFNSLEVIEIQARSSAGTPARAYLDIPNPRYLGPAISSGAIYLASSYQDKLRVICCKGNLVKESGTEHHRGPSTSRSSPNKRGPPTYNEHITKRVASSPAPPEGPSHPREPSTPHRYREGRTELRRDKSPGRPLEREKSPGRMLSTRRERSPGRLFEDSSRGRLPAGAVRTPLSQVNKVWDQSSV

Turning to `Cn1cc(-n2cnc3c(NCc4nc5cc(Cl)c(Cl)cc5[nH]4)nc(N4CCOCC4)nc32)cn1`, in assay [1], the % of inhibition was -112%.

With `Cc1cc(C)cc([C@@H]2c3cc(C)ccc3NC(=O)CN2C(=O)c2ccc(Br)s2)c1`, the % of inhibition in [2] stood at 17%.

`Cc1cc([C@@H](C)Nc2ccccc2C(=O)O)c2nc(N3CCOCC3)cc(=O)n2c1` [AZD-6482]: in [3], the % of control was found to be 95%.

With `COc1cc(N(C)c2ccnc3ccc(C(F)(F)F)cc23)cc(OC)c1OC`, the % binding in assay [4] was 93%.

Take `Nc1cnc(N2CCc3cc(S(=O)(=O)Nc4c(F)cc(Cl)cc4F)cc(N4CCCC4=O)c32)nc1` [TP-020n]: the % of control in assay [5] came to 100%; in assay [6], 100%; in [7], 92%.

The compound `N#Cc1cccc(-c2c[nH]c3ncnc(N4CCOCC4)c23)c1` returned a % of control in assay [8] of 100%.

Compound `CC(=O)c1cc(-c2ccccc2OCC2CC2)c2ncccn12` returned a % of control in assay [9] of 116%.

`CCC(=O)N1CCN(c2ccc(-n3c(=O)ccc4cnc5ccc(-c6cnc7ccccc7c6)cc5c43)cc2C(F)(F)F)CC1`: the % of control in assay [10] turned out to be 4.6%.

`COCC(=O)NC/C=C/c1ccc2ncnc(Nc3ccc(Oc4ccc(C)nc4)c(C)c3)c2c1` [CP-724714] displayed a % of control in assay [11] of 100%.
